Laboratory results published in ChEMBL document CHEMBL2380278, “Synthesis and antibacterial evaluation of a novel series of 10-hydroxyl ketolide derivatives” (2013).
≈ marks a conversion by molar mass, not a printed value.

Columns and labels:
Pseudomonas aeruginosa [1] = test: Antibacterial activity against drug-resistant Pseudomonas aeruginosa by broth microdilution method; format: functional
Salmonella typhi = test: Antibacterial activity against drug-resistant Salmonella typhi by broth microdilution method; format: functional, Salmonella enterica subsp. enterica serovar Typhi; conditions: Salmonella enterica
[2] = tested on: Staphylococcus epidermidis; test: Antibacterial activity against drug-resistant Staphylococcus epidermidis by broth microdilution method; format: functional
Escherichia coli [3] = test: Antibacterial activity against drug-resistant Escherichia coli by broth microdilution method; format: functional
Escherichia coli [4] = test: Antibacterial activity against Escherichia coli ATCC 35218 by broth microdilution method; format: functional
Staphylococcus aureus [5] = test: Antibacterial activity against drug-resistant Staphylococcus aureus by broth microdilution method; format: functional
Staphylococcus aureus [6] = test: Antibacterial activity against Staphylococcus aureus ATCC 25923 by broth microdilution method; format: functional
Escherichia coli [7] = test: Antibacterial activity against Escherichia coli ATCC 25922 by broth microdilution method; format: functional
Klebsiella pneumoniae = test: Antibacterial activity against drug-resistant Klebsiella pneumoniae by broth microdilution method; format: functional
Pseudomonas aeruginosa [8] = test: Antibacterial activity against Pseudomonas aeruginosa ATCC 27853 by broth microdilution method; format: functional

CC[C@H]1OC(=O)[C@H](C)C(=O)[C@H](C)[C@@H](O[C@@H]2O[C@H](C)C[C@H](N(C)C)[C@H]2O)[C@](C)(OC)C[C@@H](C)C(=O)[C@@](C)(O)[C@H]2OC(=O)O[C@]12C
MIC (Pseudomonas aeruginosa [1]): > 128 µg/mL
MIC (Salmonella typhi): > 128 µg/mL
MIC [2]: 64 µg/mL (≈ 102 µM)
MIC (Escherichia coli [3]): > 128 µg/mL
MIC (Escherichia coli [4]): > 128 µg/mL
MIC (Staphylococcus aureus [5]): > 128 µg/mL
MIC (Staphylococcus aureus [6]): 128 µg/mL (≈ 203 µM)
MIC (Escherichia coli [7]): > 128 µg/mL
MIC (Klebsiella pneumoniae): > 128 µg/mL
MIC (Pseudomonas aeruginosa [8]): > 128 µg/mL

CC[C@H]1OC(=O)[C@H](C)C(=O)[C@H](C)[C@@H](O[C@@H]2O[C@H](C)C[C@H](N(C)C)[C@H]2O)[C@](C)(OC)C[C@@H](C)C(=O)[C@@H](C)[C@H]2OC(=O)O[C@@]21C
MIC (Pseudomonas aeruginosa [1]): > 128 µg/mL
MIC (Salmonella typhi): 128 µg/mL (≈ 209 µM)
MIC [2]: 0.0625 µg/mL (≈ 0.102 µM)
MIC (Escherichia coli [3]): 64 µg/mL (≈ 104 µM)
MIC (Escherichia coli [4]): 128 µg/mL (≈ 209 µM)
MIC (Staphylococcus aureus [5]): 128 µg/mL (≈ 209 µM)
MIC (Staphylococcus aureus [6]): 64 µg/mL (≈ 104 µM)
MIC (Escherichia coli [7]): 128 µg/mL (≈ 209 µM)
MIC (Klebsiella pneumoniae): 128 µg/mL (≈ 209 µM)
MIC (Pseudomonas aeruginosa [8]): > 128 µg/mL

CC[C@H]1OC(=O)[C@H](C)C(=O)[C@H](C)[C@@H](O[C@@H]2O[C@H](C)C[C@H](N(C)C)[C@H]2O)[C@](C)(OC)C[C@@H](C)C(=O)[C@H](C)[C@H]2N(CCCCn3cnc(-c4cccnc4)c3)C(=O)O[C@]12C [TELITHROMYCIN]
MIC (Pseudomonas aeruginosa [1]): 64 µg/mL (≈ 78.8 µM)
MIC (Salmonella typhi): 16 µg/mL (≈ 19.7 µM)
MIC [2]: 0.125 µg/mL (≈ 0.154 µM)
MIC (Escherichia coli [3]): 32 µg/mL (≈ 39.4 µM)
MIC (Escherichia coli [4]): 8 µg/mL (≈ 9.85 µM)
MIC (Staphylococcus aureus [5]): 16 µg/mL (≈ 19.7 µM)
MIC (Staphylococcus aureus [6]): 16 µg/mL (≈ 19.7 µM)
MIC (Escherichia coli [7]): 2 µg/mL (≈ 2.46 µM)
MIC (Klebsiella pneumoniae): 16 µg/mL (≈ 19.7 µM)
MIC (Pseudomonas aeruginosa [8]): 64 µg/mL (≈ 78.8 µM)

CC[C@H]1OC(=O)[C@H](C)C(=O)[C@H](C)[C@@H](O[C@@H]2O[C@H](C)C[C@H](N(C)C)[C@H]2O)[C@](C)(OC)C[C@@H](C)C(=O)[C@@](C)(O)[C@H](O)[C@]1(C)O
MIC (Pseudomonas aeruginosa [1]): > 128 µg/mL
MIC (Salmonella typhi): > 128 µg/mL
MIC [2]: > 128 µg/mL
MIC (Escherichia coli [3]): > 128 µg/mL
MIC (Escherichia coli [4]): > 128 µg/mL
MIC (Staphylococcus aureus [5]): > 128 µg/mL
MIC (Staphylococcus aureus [6]): 64 µg/mL (≈ 106 µM)
MIC (Escherichia coli [7]): > 128 µg/mL
MIC (Klebsiella pneumoniae): > 128 µg/mL
MIC (Pseudomonas aeruginosa [8]): > 128 µg/mL

CC[C@H]1OC(=O)[C@H](C)C(=O)[C@H](C)[C@@H](O[C@@H]2O[C@H](C)C[C@H](N(C)C)[C@H]2O)[C@](C)(OC)C[C@@H](C)C(=O)[C@@](C)(O)[C@H]2OS(=O)O[C@]12C (stereo not given in full)
MIC (Pseudomonas aeruginosa [1]): > 128 µg/mL
MIC (Salmonella typhi): > 128 µg/mL
MIC [2]: 8 µg/mL (≈ 12.3 µM)
MIC (Escherichia coli [3]): > 128 µg/mL
MIC (Escherichia coli [4]): > 128 µg/mL
MIC (Staphylococcus aureus [5]): > 128 µg/mL
MIC (Staphylococcus aureus [6]): 64 µg/mL (≈ 98.5 µM)
MIC (Escherichia coli [7]): > 128 µg/mL
MIC (Klebsiella pneumoniae): > 128 µg/mL
MIC (Pseudomonas aeruginosa [8]): > 128 µg/mL

CC[C@H]1OC(=O)[C@H](C)[C@@H](O[C@H]2C[C@@](C)(OC)[C@@H](O)[C@H](C)O2)[C@H](C)[C@@H](O[C@@H]2O[C@H](C)C[C@H](N(C)C)[C@H]2O)[C@](C)(OC)C[C@@H](C)C(=O)[C@H](C)[C@@H](O)[C@]1(C)O [CLARITHROMYCIN]
MIC (Pseudomonas aeruginosa [1]): 128 µg/mL (≈ 171 µM)
MIC (Salmonella typhi): 64 µg/mL (≈ 85.6 µM)
MIC [2]: 64 µg/mL (≈ 85.6 µM)
MIC (Escherichia coli [3]): 64 µg/mL (≈ 85.6 µM)
MIC (Escherichia coli [4]): 32 µg/mL (≈ 42.8 µM)
MIC (Staphylococcus aureus [5]): > 128 µg/mL
MIC (Staphylococcus aureus [6]): 32 µg/mL (≈ 42.8 µM)
MIC (Escherichia coli [7]): 64 µg/mL (≈ 85.6 µM)
MIC (Klebsiella pneumoniae): 64 µg/mL (≈ 85.6 µM)
MIC (Pseudomonas aeruginosa [8]): 64 µg/mL (≈ 85.6 µM)

CC[C@H]1OC(=O)[C@H](C)C(=O)[C@H](C)[C@@H](O[C@@H]2O[C@H](C)C[C@H](N(C)C)[C@H]2O)[C@](C)(OC)C[C@@H](C)C(=O)[C@]2(C)O[C@H]2[C@]1(C)O
MIC (Pseudomonas aeruginosa [1]): > 128 µg/mL
MIC (Salmonella typhi): > 128 µg/mL
MIC [2]: 128 µg/mL (≈ 219 µM)
MIC (Escherichia coli [3]): > 128 µg/mL
MIC (Escherichia coli [4]): > 128 µg/mL
MIC (Staphylococcus aureus [5]): > 128 µg/mL
MIC (Staphylococcus aureus [6]): 128 µg/mL (≈ 219 µM)
MIC (Escherichia coli [7]): > 128 µg/mL
MIC (Klebsiella pneumoniae): > 128 µg/mL
MIC (Pseudomonas aeruginosa [8]): > 128 µg/mL
